Each structure is given as a SMILES string. pIC50: −log10 of the molar value. Structures can show the parent of a compound that is named as a salt.

For the assay, the target named is T1, PKBα (Homo sapiens, UniProt P31749).
T1 construct: fused on or other part: His6 tag is likely on the Upstate products
T1 sequence (P31749 118-472 limits assumed): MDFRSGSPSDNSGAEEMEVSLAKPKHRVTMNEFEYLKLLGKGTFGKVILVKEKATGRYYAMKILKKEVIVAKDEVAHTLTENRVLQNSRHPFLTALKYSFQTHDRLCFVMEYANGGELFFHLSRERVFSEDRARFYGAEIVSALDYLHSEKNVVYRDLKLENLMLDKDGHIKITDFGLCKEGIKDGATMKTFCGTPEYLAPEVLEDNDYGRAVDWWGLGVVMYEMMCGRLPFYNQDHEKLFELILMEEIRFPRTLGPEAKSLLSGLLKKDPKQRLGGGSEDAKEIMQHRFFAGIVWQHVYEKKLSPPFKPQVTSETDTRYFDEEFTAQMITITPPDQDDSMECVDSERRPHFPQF
Kind of assay: PKB kinase assay (P33-labeled ATP, peptide substrate, filter plate). It is filed as biochemical. The following applies: with respect to PKBα. An excerpt:
The kinase assay for evaluating PKB activity comprises active PKB enzymes, a PKB specific substrate, and P^33-labeled ATP. Two form of PKBα enzymes were used, the full length PKBα and a kinase domain of PKBα with pleckstrin domain (amino acids 1-117) deleted. Both PKB enzymes were obtained from Upstate cell signaling solutions (Cat.# 14-276 and 14-341). The PKB substrate used is a synthetic peptide (ARKRERTYSFGHHA (SEQ ID NO: 1)) as described in Obata et al., J. Biol. Chem. 275 (46), 36108-36115 (2000). The phosphorylated substrate was captured by a phosphocellulose membrane filter plate (MILLIPORE) and measured by a Wallac Microbeta liquid scintillation counter (Perkin Elmer). Table 1 provides the IC50 values obtained for each of the examples with respect to PKBα.
A word on the pIC50: it is the negative decadic logarithm of the IC50, by convention in mol/L. `N[C@H](CNc1nc(C(=O)NC2CC2)c(-c2ccc3cnc(F)cc3c2)s1)Cc1ccc(C(F)(F)F)cc1` [Example 23, 2-((S)-2-Amino-3-(4-(trifluoromethyl)phenyl)propylamino)-N-cyclopropyl-5-(3-fluoroisoquinolin-6-yl)thiazole-4-carboxamide]: the negative logarithm of the IC50 (pIC50) is 5.00 to 6.00. With `COCc1nc(NC[C@@H](N)Cc2ccc(C(F)(F)F)cc2)sc1-c1ccc2cnc(F)cc2c1` [Example 24, N—((S)-2-Amino-3-(4-(trifluoromethyl)phenyl)propyl)-5-(3-fluoroisoquinolin-6-yl)-4-(methoxymethyl)thiazol-2-amine], the pIC50 is over 7.30.

On to `N[C@H](CNc1ncc(-c2ccc3cnc(F)cc3c2)s1)Cc1cnc(C(F)(F)F)nc1` [Example 26, N—((S)-2-Amino-3-(2-(trifluoromethyl)pyrimidin-5-yl)propyl)-5-(3-fluoroisoquinolin-6-yl)thiazol-2-amine], for which the pIC50 is over 7.30.

Molecule `N[C@H](CNc1ncc(-c2ccc3cnc(F)cc3c2)s1)Cn1cnc(C(F)(F)F)c1` [Example 28, N—((R)-2-Amino-3-(4-(trifluoromethyl)-1H-imidazol-1-yl)propyl)-5-(3-fluoroisoquinolin-6-yl)thiazol-2-amine] showed a pIC50 of 6.00 to 7.30.

`N[C@H](CNc1ncc(-c2ccc3cnc(F)cc3c2)s1)CN1CCCC(C(F)(F)F)C1` (stereo partly drawn) [Example 30, N—((R)-2-Amino-3-((3S)-(trifluoromethyl)piperidin-1-yl)propyl)-5-(3-fluoroisoquinolin-6-yl)thiazol-2-amine]: the pIC50 is 5.00 to 6.00. The molecule `N[C@H](CNc1ncc(-c2ccc3cnc(F)cc3c2)s1)Cc1ccc(C(F)(F)F)nc1Cl` [Example 31, N—((S)-2-Amino-3-(2-chloro-6-(trifluoromethyl)pyridin-3-yl)propyl)-5-(3-fluoroisoquinolin-6-yl)thiazol-2-amine] showed a pIC50 of over 7.30. The figure for `COC[C@@H](c1ccc(C(F)(F)F)cc1)[C@H](N)CNc1ncc(-c2ccc3cnc(F)cc3c2)s1` [Example 32, N-((2S,3S)-2-Amino-4-methoxy-3-(4-(trifluoromethyl)phenyl)butyl)-5-(3-fluoroisoquinolin-6-yl)thiazol-2-amine] is over 7.30; for `CS(=O)(=O)C[C@@H](c1ccc(C(F)(F)F)cc1)[C@H](N)CNc1ncc(-c2ccc3cnc(F)cc3c2)s1` [Example 34, N-((2S,3S)-2-Amino-4-(methylsulfonyl)-3-(4-(trifluoromethyl)phenyl)butyl)-5-(3-fluoroisoquinolin-6-yl)thiazol-2-amine] it is 6.00 to 7.30. Molecule `CC#Cc1nc(NC[C@@H](N)Cc2ccc(C(F)(F)F)nc2)sc1-c1ccc2cnc(F)cc2c1` [Example 35, N—((S)-2-Amino-3-(6-(trifluoromethyl)pyridin-3-yl)propyl)-5-(3-fluoroisoquinolin-6-yl)-4-(prop-1-ynyl)thiazol-2-amine] showed a pIC50 of over 7.30.

On to `N[C@H](CNc1ncc(-c2ccc3cnc(F)cc3c2)s1)[C@@H](O)c1ccc(C(F)(F)F)cc1` [Example 37, (1S,2R)-2-Amino-3-((5-(3-fluoro-6-isoquinolinyl)-1,3-thiazol-2-yl)amino)-1-(4-(trifluoromethyl)phenyl)-1-propanol trifluoroacetate], for which the pIC50 was over 7.30. Molecule `COCO[C@@H](c1ccc(C(F)(F)F)cc1)[C@H](N)CNc1ncc(-c2ccc3cnc(F)cc3c2)s1` [Example 39] had a negative-log IC50 (pIC50) of over 7.30.

The molecule `N[C@H](CNc1ncc(-c2ccc3cnc(F)cc3c2)s1)Cc1cnc(F)c(Cl)c1` [Example 40, N—((S)-2-Amino-3-(5-chloro-6-fluoropyridin-3-yl)propyl)-5-(3-fluoroisoquinolin-6-yl)thiazol-2-amine] had a pIC50 of 6.00 to 7.30. In turn, `CC(C)(C)OC(=O)N[C@@H](Cc1ccc(C(F)F)cc1)CN(C(=O)OC(C)(C)C)c1ncc(-c2ccc3cnc(F)cc3c2)s1` [Example 41, tert-Butyl ((2S)-2-((tert-butoxycarbonyl)amino)-3-(4-(difluoromethyl)phenyl)propyl)(5-(3-fluoro-6-isoquinolinyl)-1,3-thiazol-2-yl)carbamate] showed a pIC50 of 5.00 to 6.00. For `N[C@H](CNc1ncc(-c2ccc3cnc(F)cc3c2)s1)Cc1ccc(C(F)F)cc1` [Example 42, (2S)-3-(4-(difluoromethyl)phenyl)-N-1-(5-(3-fluoro-6-isoquinolinyl)-1,3-thiazol-2-yl)-1-2-propanediamine trifluoroacetate], the pIC50 was over 7.30.

`N[C@H](CNc1ncc(-c2ccc3cnc(F)cc3c2)s1)Cc1ccc2c(c1)OCCO2` [Example 43, N—((S)-2-Amino-3-(2,3-dihydrobenzo[b][1,4]dioxin-6-yl)propyl)-5-(3-fluoroisoquinolin-6-yl)thiazol-2-amine] showed a pIC50 of over 7.30.

Take `COC(=O)c1ccc(C[C@H](N)CNc2ncc(-c3ccc4cnc(F)cc4c3)s2)cc1` [Example 45]: the pIC50 is 6.00 to 7.30. `Cn1ccc(C[C@H](N)CNc2ncc(-c3ccc4cnc(F)cc4c3)s2)cc1=O` [Example 46] gave a pIC50 of 6.00 to 7.30. Take `N[C@@H](CNc1ncc(-c2ccc3cnc(F)cc3c2)s1)Cc1ccc(C(F)(F)F)nc1` [Example 47, (2R)—N^1-(5-(3-Fluoro-6-isoquinolinyl)-1,3-thiazol-2-yl)-3-(6-(trifluoromethyl)-3-pyridinyl)-1,2-propanediamine]: the pIC50 is 5.00 to 6.00. `N[C@H](CCc1ncc(-c2ccc3cnc(F)cc3c2)s1)Cc1ccc(C(F)(F)F)cc1` [Example 48, (2R)-4-(5-(3-Fluoroisoquinolin-6-yl)thiazol-2-yl)-1-(4-(trifluoromethyl)phenyl)butan-2-amine] showed a pIC50 of 5.00 to 6.00. For the molecule `COCc1nc(CC[C@@H](N)Cc2ccc(C(F)(F)F)nc2)sc1-c1ccc2cnc(F)cc2c1` [Example 49, (2R)-4-(5-(3-Fluoroisoquinolin-6-yl)-4-(methoxymethyl)thiazol-2-yl)-1-(6-(trifluoromethyl)pyridin-3-yl)butan-2-amine], the pIC50 was over 7.30.

Source of the values: patent publication US20110263647A1 (AMGEN INC., priority 2009, published 2011).
